Measurements reported in PubChem BioAssay AID248 (DTP/NCI, 2004).
Values joined by “and” are separate entries in the source; they are usually repeats but may differ in a detail not shown here. Equal entries are not always repeated. Toxic doses and inconclusive results are not listed. Rule as the data show it: active = T/C of 150% or more; inactive = T/C below 125%.

Tested on: L1210 leukemia ip in BDF1 mice, survival T/C
Assay: NCI In Vivo Anticancer Drug Screen. Data for tumor model L1210 Leukemia (intraperitoneal) in B6D2F1 (BDF1) mice
Details: endpoint: mean survival time, higher = longer survival
How it was run: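 Mice bearing the transplanted tumor received compound or vehicle. Survival of the treated group was divided by that of the vehicle-treated control group to give the ratio.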

[1] = dose: 100.0 mg/kg/injection, schedule: Q04DX002 (ip), vehicle: Klucel (hydroxypropylcellulose) (HPC)
[2] = dose: 200.0 mg/kg/injection, schedule: Q04DX002 (ip), vehicle: Klucel (hydroxypropylcellulose) (HPC)
[3] = dose: 400.0 mg/kg/injection, schedule: Q04DX002 (ip), vehicle: Klucel (hydroxypropylcellulose) (HPC)
[4] = dose: 100.0 mg/kg/injection, schedule: Q01DX009 (ip), vehicle: Klucel (hydroxypropylcellulose) (HPC)
[5] = dose: 200.0 mg/kg/injection, schedule: Q01DX009 (ip), vehicle: Klucel (hydroxypropylcellulose) (HPC)
[6] = dose: 400.0 mg/kg/injection, schedule: Q01DX009 (ip), vehicle: Klucel (hydroxypropylcellulose) (HPC)
[7] = dose: 100.0 mg/kg/injection, schedule: Q04DX003 (ip), vehicle: saline
[8] = dose: 200.0 mg/kg/injection, schedule: Q04DX003 (ip), vehicle: saline
[9] = dose: 400.0 mg/kg/injection, schedule: Q04DX003 (ip), vehicle: saline
[10] = dose: 100.0 mg/kg/injection, schedule: Q04DX003 (ip), vehicle: Klucel (hydroxypropylcellulose) (HPC)
[11] = dose: 200.0 mg/kg/injection, schedule: Q04DX003 (ip), vehicle: Klucel (hydroxypropylcellulose) (HPC)
[12] = dose: 100.0 mg/kg/injection, schedule: Q01DX009 (ip), vehicle: saline with Tween-80
[13] = dose: 200.0 mg/kg/injection, schedule: Q01DX009 (ip), vehicle: saline with Tween-80
[14] = dose: 50.0 mg/kg/injection, schedule: Q01DX009 (ip), vehicle: saline with Tween-80
[15] = dose: 100.0 mg/kg/injection, schedule: Q04DX003 (ip), vehicle: saline with Tween-80
[16] = dose: 25.0 mg/kg/injection, schedule: Q01DX009 (ip), vehicle: saline with Tween-80
[17] = dose: 100.0 mg/kg/injection, schedule: Q01DX001 (ip), vehicle: saline
[18] = dose: 200.0 mg/kg/injection, schedule: Q01DX001 (ip), vehicle: saline
[19] = dose: 400.0 mg/kg/injection, schedule: Q01DX001 (ip), vehicle: saline
[20] = dose: 400.0 mg/kg/injection, schedule: Q04DX003 (ip), vehicle: Klucel (hydroxypropylcellulose) (HPC)

Measured: T/C

Cc1no[n+]([O-])c1C(N)=O
inactive: [1] 98 % of control | [2] 95 % of control | [3] 98 % of control

CCCCCCCCCCC(=O)[O][Hg][c]1ccccc1
inactive: dose: 9.38 mg/kg/injection, schedule: Q01DX001 (ip), vehicle: saline 98 % of control | dose: 18.75 mg/kg/injection, schedule: Q01DX001 (ip), vehicle: saline 93 % of control

COc1cc([N+](=O)[O-])ccc1NC(=O)Nc1ccccc1F
inactive: [4] 98 % of control | [5] 93 % of control | [6] 89 % of control

Cc1ccc(Cl)cc1N=C=S
inactive: dose: 75.0 mg/kg/injection, schedule: Q01DX001 (ip), vehicle: saline 100 % of control | dose: 150.0 mg/kg/injection, schedule: Q01DX001 (ip), vehicle: saline 101 % of control | dose: 300.0 mg/kg/injection, schedule: Q01DX001 (ip), vehicle: saline 106 % of control

O=C(O)CC(=O)c1cccc([N+](=O)[O-])c1
inactive: dose: 100.0 mg/kg/injection, schedule: Q01DX001 (ip), vehicle: Klucel (hydroxypropylcellulose) (HPC) 104 % of control | dose: 200.0 mg/kg/injection, schedule: Q01DX001 (ip), vehicle: Klucel (hydroxypropylcellulose) (HPC) 97 % of control | dose: 400.0 mg/kg/injection, schedule: Q01DX001 (ip), vehicle: Klucel (hydroxypropylcellulose) (HPC) 96 % of control

CCN(CC)C(=O)Cn1cc(F)c(N)nc1=O
inactive: dose: 100.0 mg/kg/injection, schedule: Q01DX009 (ip), vehicle: saline 98 % of control | [7] 92 % of control | dose: 200.0 mg/kg/injection, schedule: Q01DX009 (ip), vehicle: saline 107 % of control | [8] 92 % of control | dose: 400.0 mg/kg/injection, schedule: Q01DX009 (ip), vehicle: saline 94 % of control | [9] 95 % of control

CC(=O)CC(=O)Oc1ccccc1OC(C)=O
inactive: dose: 50.0 mg/kg/injection, schedule: Q01DX009 (ip), vehicle: Klucel (hydroxypropylcellulose) (HPC) 103 % of control | [4] 101 % of control | [10] 100 % of control | [5] 114 % of control | [11] 102 % of control

COc1ccc2ccccc2c1/C=N/N1CCCCC1
inactive: [12] 100 % of control | [13] 93 % of control | dose: 400.0 mg/kg/injection, schedule: Q01DX009 (ip), vehicle: saline with Tween-80 100 % of control

O=C1CC(=O)N(Cc2ccccc2)C(=O)N1Cc1ccccc1
inactive: dose: 100.0 mg/kg/injection, schedule: Q01DX001 (ip), vehicle: carboxymethylcellulose (CMC) 86 % of control | dose: 200.0 mg/kg/injection, schedule: Q01DX001 (ip), vehicle: carboxymethylcellulose (CMC) 92 % of control | dose: 400.0 mg/kg/injection, schedule: Q01DX001 (ip), vehicle: carboxymethylcellulose (CMC) 90 % of control

COc1ccc(CCNC(=S)NC(=O)c2ccc(Cl)c(Cl)c2)cc1OC
inactive: [4] 91 % of control | [5] 86 % of control | [6] 93 % of control

CC(=O)Nc1cccc(S(=O)(=O)F)c1
inactive: [14] 100 % of control | [12] 105 % of control | [13] 88 % of control

Cc1cc(Br)c[nH]c1=O
inactive: [15] 98 % of control | dose: 200.0 mg/kg/injection, schedule: Q04DX003 (ip), vehicle: saline with Tween-80 98 % of control | dose: 400.0 mg/kg/injection, schedule: Q04DX003 (ip), vehicle: saline with Tween-80 102 % of control

COc1cc([N+](=O)[O-])ccc1NC(=O)NCCc1ccc(OC)c(OC)c1
inactive: [4] 93 % of control | [5] 96 % of control | [6] 100 % of control

C/C(Cc1ccccc1)=N\[N+](C)(C)C
inactive: dose: 75.0 mg/kg/injection, schedule: Q01DX009 (ip), vehicle: saline 107 % of control | [7] 104 % of control | dose: 150.0 mg/kg/injection, schedule: Q01DX009 (ip), vehicle: saline 100 % of control | [8] 86 % of control

[O-]/[N+](=N\O)c1ccc(/[N+]([O-])=N\O)cc1
inactive: dose: 12.5 mg/kg/injection, schedule: Q01DX009 (ip), vehicle: saline with Tween-80 88 % of control | [16] 88 % of control | [14] 97 % of control and 107 % of control and 91 % of control | dose: 100.0 mg/kg/injection, schedule: Q01DX001 (ip), vehicle: saline with Tween-80 95 % of control | [12] 102 % of control | dose: 200.0 mg/kg/injection, schedule: Q01DX001 (ip), vehicle: saline with Tween-80 98 % of control | [13] 87 % of control

O=S(=O)(F)c1cc(Cl)ccc1O
inactive: [1] 115 % of control | [2] 115 % of control | [3] 105 % of control

CCCCCC1OC1C/C=C\CCCCCCCC(=O)OCC(O)COC(=O)CCCCCCC/C=C\CC1OC1CCCCC (stereo not given)
inactive: [17] 97 % of control | [18] 97 % of control | [19] 95 % of control

O=c1oc2cc(N=Cc3ccc4c(c3)OCO4)ccc2c2ccccc12
inactive: dose: 100.0 mg/kg/injection, schedule: Q01DX001 (ip), vehicle: other 91 % of control | dose: 200.0 mg/kg/injection, schedule: Q01DX001 (ip), vehicle: other 93 % of control | dose: 400.0 mg/kg/injection, schedule: Q01DX001 (ip), vehicle: other 90 % of control

CCCCNC(=O)NNC(=O)OCC
inactive: [7] 100 % of control | [8] 100 % of control | [9] 100 % of control

Nc1ccc(S(=O)(=O)Nc2ccc([N+](=O)[O-])cn2)cc1
inactive: [17] 101 % of control | [18] 104 % of control | [19] 98 % of control

CS(=O)(=O)NC(=O)C[P+](c1ccccc1)(c1ccccc1)c1ccccc1
inactive: [17] 96 % of control | [18] 89 % of control | [19] 98 % of control

O=C(/C=C/C(=O)n1ccc2ccccc21)n1ccc2ccccc21
inactive: dose: 50.0 mg/kg/injection, schedule: Q01DX001 (ip), vehicle: saline 95 % of control | [17] 95 % of control | [18] 101 % of control | [19] 95 % of control

COc1cc([N+](=O)[O-])c(/C=C2/c3cc(OC)c(OC)cc3CCN2C)cc1Br
inactive: [4] 100 % of control | [10] 90 % of control | [5] 96 % of control | [11] 96 % of control | [6] 92 % of control | [20] 95 % of control

CN(C)c1ccc(/C=C/C(=O)c2ccc([N+](=O)[O-])cc2)c(Cl)c1
inactive: [10] 92 % of control | [11] 97 % of control | [20] 97 % of control

COc1cc([N+](=O)[O-])ccc1NC(=O)Oc1ccc(F)cc1Cl
inactive: [4] 94 % of control | [5] 88 % of control

O=S(=O)(c1ccc(NC(=S)Oc2ccccc2)cc1)c1ccc(NC(=S)Oc2ccccc2)cc1
inactive: [17] 104 % of control | [18] 104 % of control

CCCCNC(c1ccccc1)=[N+]1CCCCC1
inactive: dose: 12.5 mg/kg/injection, schedule: Q04DX002 (ip), vehicle: saline 92 % of control | dose: 25.0 mg/kg/injection, schedule: Q04DX002 (ip), vehicle: saline 98 % of control

N#C/C(=C\c1ccc([N+](=O)[O-])o1)[N+](=O)[O-]
inactive: [16] 110 % of control | [14] 96 % of control | [12] 104 % of control | [15] 106 % of control
